Measurements: US4789683A, “Benzamido-derivatives” (priority 1981, dated 1988)
Like-named read-outs stand apart in the source and are kept apart here.

Assays:
[1] = molecular target: T1, DA receptors in the brain (Rattus norvegicus, UniProt P61169); assay: Block of apomorphine-induced stereotypies in the rat (0-3 scale); type: in vivo, Male Sprague-Dawley rats
T1 construct: from tissue; host or cells: brain of live male Sprague-Dawley rats (in vivo behavioural test)
Description: There are presently several techniques available to study DA receptor blockage in the brain in vico. One method is based on the ability of antipsychotic drugs to block the behavioural effects induced by the DA agonist apomorphine in the rat.
Directly after injection, the animals were placed in the cages, one in each cage. Scoring of the stereotypies were performed by two separate methods. […] The strength of the stereotype was scored on a 0-3 scale as follows:
3 Continous sniffing. Chewing, biting and licking.
In the second system the number of animals displaying hyperactivity caused by apomorphine were scored. Each group consisted of 6-8 animals. Saline controls were always run simultaneously. […] The ED50 were calculated from log dose-response curves by the method of least squares from 4-6 dose levels with 6-8 animals per dose level.

[2] = test system: DA receptors in the brain; assay: Block of apomorphine-induced hyperactivity in the rat; type: in vivo, Male Sprague-Dawley rats; conditions: for Block of apomorphine ED50, hyperactivity: i.p., 60 min prior to apomorphine HCl 1 mg/kg s.c.; for potency to block apomorphine, ED50 Hyperactivity: p.o., rat
From the text: There are presently several techniques available to study DA receptor blockage in the brain in vico. One method is based on the ability of antipsychotic drugs to block the behavioural effects induced by the DA agonist apomorphine in the rat. […] The stereotypies (chewing, […], biting) appear mainly to be induced via activation of DA receptors linked to the neostriatal DA system (J. Psychiat. […] Directly after injection, the animals were placed in the cages, one in each cage. Scoring of the stereotypies were performed by two separate methods. […] The strength of the stereotype was scored on a 0-3 scale as follows: In the second system the number of animals displaying hyperactivity caused by apomorphine were scored. Each group consisted of 6-8 animals. Saline controls were always run simultaneously.

[3] = experimental animals; cited from earlier work
[4] = in vivo; cited from earlier work
[5] = po, rat, read-out: potency to block apomorphine, ED50 Stereotypies
[6] = rat, ip, 60 min prior to apomorphine HCl 1 mg/kg s.c., read-out: Block of apomorphine ED50, stereotypes

T1 sequence (P61169 whole entry): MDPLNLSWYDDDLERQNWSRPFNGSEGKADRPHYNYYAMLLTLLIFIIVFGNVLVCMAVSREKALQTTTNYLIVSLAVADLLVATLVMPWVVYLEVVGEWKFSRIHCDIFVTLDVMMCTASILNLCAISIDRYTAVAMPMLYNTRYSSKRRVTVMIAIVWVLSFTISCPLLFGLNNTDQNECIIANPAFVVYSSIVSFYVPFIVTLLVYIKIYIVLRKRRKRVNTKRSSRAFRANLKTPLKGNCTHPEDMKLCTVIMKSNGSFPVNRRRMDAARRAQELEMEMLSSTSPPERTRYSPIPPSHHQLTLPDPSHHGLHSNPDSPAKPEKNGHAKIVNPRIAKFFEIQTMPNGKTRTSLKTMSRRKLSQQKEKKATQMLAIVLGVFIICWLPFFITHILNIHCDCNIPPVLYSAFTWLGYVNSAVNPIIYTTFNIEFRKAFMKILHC

SMILES | ED50 [1, 5] | ED50 [1, 6] | Block of apomorphine ED50, hyperactivity [2] | potency to block apomorphine, ED50 Hyperactivity [2] | further results
CCN1CCCC1CNC(=O)c1c(O)c(Cl)cc(Cl)c1OC (single isomer, unassigned) [FLA 870 (-)] |  |  | 0.11 µmol/kg |  | Block of apomorphine ED50, stereotypes ([1]; i.p., 60 min prior to apomorphine HCl 1 mg/kg s.c.): 2.4 µmol/kg
CCOc1ccc(Br)c(O)c1C(=O)NCC1CCCN1CC (single isomer, unassigned) [901(-)] | 34 µmol/kg |  |  | 3.0 µmol/kg | 
CCN1CCCC1CNC(=O)c1c(O)c(Br)cc(Br)c1OC (single isomer, unassigned) [FLA 659 (-)] | 12 µmol/kg | 2.3 µmol/kg | 0.40 µmol/kg | 3.2 µmol/kg | 
CCN1CCCC1CNC(=O)c1c(OC)ccc(Cl)c1O (single isomer, unassigned) [FLA 814 (-)] | 25 µmol/kg | 1.1 µmol/kg | 0.14 µmol/kg | 4.4 µmol/kg | 
CCN1CCCC1CNC(=O)c1c(OC)ccc(Br)c1O (single isomer, unassigned) [FLA 797 (-)] | 22 µmol/kg | 0.38 µmol/kg | 0.035 µmol/kg | 3 µmol/kg | 
CCN1CCCC1CNC(=O)c1c(OC)ccc(Br)c1O (stereo not drawn) [FLA 797] |  | 1.1 µmol/kg | 0.22 µmol/kg |  | 
CCN1CCCC1CNC(=O)c1cc(S(N)(=O)=O)ccc1OC (stereo not drawn) [Sulpiride, reference compound] |  |  | 50 µmol/kg |  | catalepsy [3]: weak catalepsy; extrapyramidal side effects [4]: weak extrapy ramidal side effects; activity after oral administration ([1]; p.o., rat, apomorphine stereotypies and hyperactivity, in words): lost all activity; ED50 ([1]; rat, ip, read-out: Block of apomorphine ED50, stereotypes): 203 µmol/kg

Further lines, with some results ahead:

ED50 [1, 5] | ED50 [1, 6] | SMILES | Block of apomorphine ED50, hyperactivity [2] | potency to block apomorphine, ED50 Hyperactivity [2] | further results
 | 0.75 µmol/kg | CCCN1CCCC1CNC(=O)c1c(OC)ccc(Br)c1O (single isomer, unassigned) [FLA 889 (-)] | 0.27 µmol/kg |  | 
 | 3.4 µmol/kg | CCOc1ccc(Br)c(O)c1C(=O)NCC1CCCN1CC (stereo not drawn) [FLA 901] | 1.1 µmol/kg |  | 
 | 10 µmol/kg | CCN1CCCC1CNC(=O)c1c(O)ccc(Br)c1OC (stereo not drawn) [FLA 908] | 1.1 µmol/kg |  | 
 | 0.53 µmol/kg | CCN1CCCC1CNC(=O)c1c(OC)ccc(Br)c1OC(C)=O (stereo not drawn) [FLA 903] |  |  | 
